{"source": "patent US20140045908A1", "about": "“HSP90 INHIBITORY COMPOUNDS IN TREATING JAK/STAT SIGNALING-MEDIATED CANCERS” (SYNTA PHARMACEUTICALS CORP., priority 2011, published 2014)", "assay_type_in_all_cases": "cell-based, human", "key": {"[1]": {"tested_on": "JAK/STAT signaling in SET-2 cells", "assay": "Western blot of JAK/STAT signaling in SET-2 cells", "conditions": "24 h", "description": "SET-2 cells were dosed with the indicated concentrations of ganetespib or 17-AAG for 24 h and analyzed to determine JAK/STAT protein and target levels using the antibodies indicated.\n(§1) Cells were disrupted in lysis buffer (CST) and solubilized in 2% SDS. Xenograft tumors (average volume of 100-200 mm3) were excised, cut in half, and flash frozen in liquid nitrogen. Each tumor fragment was lysed in 0.5 mL of lysis buffer using a FastPrep-24 homogenizer and Lysing Matrix A (MP Biomedicals, Solon, Ohio, USA) and lysates clarified by centrifugation. Equal amounts of proteins were resolved by SDS-PAGE and immunoblotted with indicated antibodies. The antigen-antibody complex was visualized and quantitated using an Odyssey system (LI-COR, Lincoln, Nebr., USA)."}, "HEL92.1.7 cells [2]": {"tested_on": "HEL92.1.7 cells", "assay": "Cell viability assay (AlamarBlue, 72 h)", "description": "All cell lines were obtained from the ATCC (Rockville, Md., USA), with the exception of SET-2 cells which were purchased from the German Collection of Microorganisms and Cell Cultures (DSMZ, Germany). Cells were maintained and cultured according to standard techniques at 37° C. in 5% (v/v) CO2 using culture medium recommended by the supplier.\nCells were grown in 96-well plates based on optimal growth rates determined empirically for each line. Twenty-four hours after plating, cells were dosed with the indicated compound or DMSO (0.3%) for 72 h. AlamarBlue (Invitrogen, Carlsbad, Calif., USA) was added (10% v/v) to the cells, and the plates were incubated for 3 h and subjected to fluorescence detection (Ex=545 nm, Em=600 nm) in a SpectraMax Plus 384 microplate reader (Molecular Devices, Sunnyvale, Calif., USA). Data are normalized to percent of control, with IC50 values based on a four-parameter logistic dose response curve (model 205) using XLfit version 5.1 from IDBS (Guildford, U.K.)."}, "[3]": {"tested_on": "JAK2 dependent signaling in HEL92.1.7 cells", "assay": "Western blot of JAK/STAT signaling in HEL92.1.7 cells", "conditions": "250 nM ganetespib or 1000 nM P6", "description": "FIG. 2 compares the more durable ganetespib durable inhibition of JAK/STAT signaling to P6. HEL92.1.7 cells were cultured in the presence of 250 nM Ganetespib or 1000 nM P6 and harvested at the indicated time points. The levels of JAK2, phosphorylated and total STAT3 and STAT5, phospho-AKT, phospho-ERK and GAPDH were determined by western blot.\nas §1"}, "[4]": {"tested_on": "JAK2/STAT3 signaling in HCC827 cells", "assay": "Western blot of constitutive and IL-6 induced STAT3 activity in HCC827 cells", "description": "HCC827 lung cancer cells were treated with increasing concentrations of ganetespib or P6 for 24 h followed by a 15 min stimulation with or without 50 ng/ml human recombinant IL-6. The levels of JAK2, total and phospho-STAT3, and PIM2 were analyzed by western blot. GAPDH is included as a loading control.\nas §1"}, "[5]": {"tested_on": "JAK/STAT target and cell cycle gene expression in HEL92.1.7 cells", "assay": "RNA expression profiling (RT-PCR, Affymetrix) in HEL92.1.7 cells", "conditions": "4 hour P6 (1000 nM), 24 hour ganetespib (250 nM)", "description": "HEL92.1.7 cells were treated with DMSO, P6 (100 or 1000 nM) or ganetespib (25 or 250 nM) for 4 h or 24 h, and total RNA extracted using Trizol (Invitrogen). RNA was purified with the RNeasy kit (Qiagen, Hilden, Germany) and converted to cDNA via an iScript kit (BioRad, Hercules, Calif., USA). Oligonucleotide primers were purchased from SABiosciences (Frederick, Md., USA). PCR was done with iQ SYBR Green Supermix (Bio-Rad), and levels of the tested genes were normalized to HPRT expression using the comparative Ct method.\nBiotinylated aRNA was generated by in vitro transcription using Affymetrix GeneChip Expression IVT labeling kit (Affymetrix, Santa Clara, Calif., USA). Fifteen micrograms of labeled aRNA was fragmented and hybridized to Affymetrix GeneChip Human Genome U133 Plus 2 arrays and scanned using a GeneChip Scanner (Affymetrix). Array data were analyzed with the Affymetrix Expression Console Software utilizing the MASS algorithm. In order to generate a threshold for identifying probe sets that have large differences between 1000 nM P6 (4 h) and 250 nM ganetespib (24 h) arrays and their controls in the absence of treatment replicates, data from four control arrays (DMSO only; two at 4 h, and two at 24 h) were used to create an expression level dependent fold-difference envelope that reflects the increasing measurement variability as expression level decreases. This envelope, used in lieu of a fixed fold-difference criteria, was formed by identifying the xth percentile expression-level difference (where x was large, typically 99.9%) at each mean expression level bin. To achieve this, data were used from the six possible comparisons from the four DMSO-only arrays. The resulting, smoothed threshold fold-difference envelope was then applied to the two compound-treated/control array pairs to identify those probe-sets that have large expression level differences between treatment and control. For hierarchical analysis, genes with greater than two fold changes in expression with 250 nM ganetespib were clustered using established algorithms in Cluster (49) and a subset visualized by TreeView."}, "HEL92.1.7 cells [6]": {"tested_on": "HEL92.1.7 cells", "assay": "Flow cytometry cell cycle analysis", "description": "HEL92.1.7 cells were plated at 0.5×10^6 cells/mL and treated as indicated. Cells were harvested and stained with propidium iodide using the BD Cycle TEST PLUS Reagent Kit (BD Biosciences, San Jose, Calif., USA) according to the manufacturer's instructions. Twenty thousand cells were analyzed for their DNA content using a FACS Caliber cytometer (BD Biosciences)."}, "[7]": {"tested_on": "Cdk1, phospho-Chk2, cyclins in HEL92.1.7 cells", "assay": "Western blot of cell cycle proteins in HEL92.1.7 cells", "conditions": "ganetespib 250 nM or P6 1000 nM, 24-48 h", "description": "Cells were harvested at the indicated time points and the levels of total and phospho-Cdk1, phospho-Chk2 and GAPDH analyzed by western blot.\nFIG. 12 illustrates the effects of ganetespib on JAK/STAT and cell cycle protein expression. HEL92.1.7 cells were treated with 100 nM ganetespib and subject to western blot to determine the levels of Cdk1, cyclin B1, cyclin A1, JAK2, total and phospho-STAT3, and GAPDH at hourly intervals over an 11 h time course.\nas §1"}, "[8]": {"conditions": "24 h, absence of external ligand"}}, "data": [{"smiles": "C=CCNC1=C2C[C@@H](C)C[C@H](OC)[C@H](O)[C@@H](C)/C=C(\\C)[C@H](OC(N)=O)[C@@H](OC)/C=C\\C=C(/C)C(=O)NC(=CC1=O)C2=O", "note": "[17-AAG, reference compound]", "values": [{"measurement": "fold less potent than ganetespib, effects on JAK/STAT signaling", "setting": "[1]", "result": 200, "unit": "fold"}]}, {"smiles": "CC(C)(C)c1nc2c3cc[nH]c(=O)c3c3cc(F)ccc3c2[nH]1", "note": "[P6, reference compound]", "values": [{"measurement": "fold less potency than ganetespib, loss of cellular viability", "setting": "HEL92.1.7 cells [2]", "result": 30, "unit": "fold"}, {"measurement": "IC50", "setting": "HEL92.1.7 cells [2]; 72 h, Alamar blue, read-out: IC50, loss of cellular viability", "result": 614, "unit": "nM"}, {"measurement": "JAK2 dependent signaling (phospho-STAT3, phospho-STAT5, ERK signaling)", "setting": "[3]", "result": "blocked JAK2 dependent signaling"}, {"measurement": "JAK2 expression", "setting": "[4]; [8]", "result": "did not influence total JAK2 protein levels"}, {"measurement": "constitutive STAT3 activity", "setting": "[4]; [8]", "result": "downregulated constitutive STAT3 activity"}, {"measurement": "JAK/STAT signaling stimulated by exogenous IL-6", "setting": "[4]; 24 h then 15 min 50 ng/ml IL-6", "result": "blocked JAK/STAT signaling stimulation"}, {"measurement": "expression of JAK/STAT target genes (SOCS and PIM family members)", "setting": "[5]", "result": "downregulated"}, {"measurement": "cell cycle distribution", "setting": "HEL92.1.7 cells [6]", "result": "accumulation in G1 phase only, without the loss of S phase or G2/M arrest"}, {"measurement": "Cdk1 protein expression", "setting": "[7]", "result": "no effect on Cdk1 expression"}]}]}
